“And” between values parts separate entries of the source, which are not always exact repeats. Equal entries are not always repeated. Toxic doses and inconclusive results are not listed. How the source made its calls: active means survival T/C of 150% or more; inactive means T/C below 125% in these data.
System: P388 leukemia ip, CD2F1 mice, survival T/C
Assay: NCI In Vivo Anticancer Drug Screen. Data for tumor model P388 Leukemia (intraperitoneal) in CD2F1 (CDF1) mice
Conditions: endpoint: median survival time, higher = longer survival
Procedure, shortened: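 Mice carrying the transplanted tumor received test compound or vehicle. Survival was recorded in each group, and the value is the treated-group measurement divided by that of the vehicle-treated control group.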

[1] = dose: 12.5 mg/kg/injection, schedule: Q01DX009 (ip), vehicle: Klucel (hydroxypropylcellulose) (HPC)
[2] = dose: 25.0 mg/kg/injection, schedule: Q01DX009 (ip), vehicle: Klucel (hydroxypropylcellulose) (HPC)
[3] = dose: 50.0 mg/kg/injection, schedule: Q01DX005 (ip), vehicle: Klucel (hydroxypropylcellulose) (HPC)
[4] = dose: 100.0 mg/kg/injection, schedule: Q01DX005 (ip), vehicle: Klucel (hydroxypropylcellulose) (HPC)
[5] = dose: 200.0 mg/kg/injection, schedule: Q01DX005 (ip), vehicle: Klucel (hydroxypropylcellulose) (HPC)
[6] = dose: 60.0 mg/kg/injection, schedule: Q01DX005 (ip), vehicle: Klucel (hydroxypropylcellulose) (HPC)
[7] = dose: 120.0 mg/kg/injection, schedule: Q01DX005 (ip), vehicle: Klucel (hydroxypropylcellulose) (HPC)
[8] = dose: 240.0 mg/kg/injection, schedule: Q01DX005 (ip), vehicle: Klucel (hydroxypropylcellulose) (HPC)

Measured: T/C

Cc1ccc(S(=O)(=O)C(=S)N(C)N(C)C)cc1
inactive: [1] 115 % of control | [2] 117 % of control

[NH-][n+]1c2c(nc3ccccc31)-c1cccc3cccc-2c13
inactive: [3] 103 % of control | dose: 100.0 mg/kg/injection, schedule: Q01DX001 (ip), vehicle: Klucel (hydroxypropylcellulose) (HPC) 97 % of control | [4] 112 % of control | dose: 200.0 mg/kg/injection, schedule: Q01DX001 (ip), vehicle: Klucel (hydroxypropylcellulose) (HPC) 100 % of control | [5] 105 % of control | dose: 400.0 mg/kg/injection, schedule: Q01DX001 (ip), vehicle: Klucel (hydroxypropylcellulose) (HPC) 102 % of control

C=CCCCC1(c2ccccc2)C(=O)Oc2ccccc21 (centres undefined)
inactive: dose: 50.0 mg/kg/injection, schedule: Q01DX005 (ip), vehicle: saline with Tween-80 98 % of control | dose: 100.0 mg/kg/injection, schedule: Q01DX005 (ip), vehicle: saline with Tween-80 89 % of control | dose: 200.0 mg/kg/injection, schedule: Q01DX005 (ip), vehicle: saline with Tween-80 90 % of control

C=C[C@]1(C)C[C@@H](OC(=O)CO)[C@@]2(C)[C@H](C)CC[C@]3(CCC(=O)[C@H]32)[C@@H](C)[C@@H]1O
inactive: [1] 101 % of control | [2] 97 % of control | dose: 50.0 mg/kg/injection, schedule: Q01DX009 (ip), vehicle: Klucel (hydroxypropylcellulose) (HPC) 101 % of control and 108 % of control and 94 % of control | dose: 150.0 mg/kg/injection, schedule: Q01DX009 (ip), vehicle: Klucel (hydroxypropylcellulose) (HPC) 100 % of control and 95 % of control | dose: 200.0 mg/kg/injection, schedule: Q01DX009 (ip), vehicle: Klucel (hydroxypropylcellulose) (HPC) 104 % of control and 107 % of control | dose: 400.0 mg/kg/injection, schedule: Q01DX009 (ip), vehicle: Klucel (hydroxypropylcellulose) (HPC) 107 % of control

COC(=O)CCC(C(C)=O)C(=O)OC (centres undefined)
inactive: dose: 60.0 mg/kg/injection, schedule: Q01DX005 (ip), vehicle: saline 105 % of control | dose: 120.0 mg/kg/injection, schedule: Q01DX005 (ip), vehicle: saline 110 % of control | dose: 240.0 mg/kg/injection, schedule: Q01DX005 (ip), vehicle: saline 107 % of control

CC1=C(C(=O)Nc2cccc3ccccc23)C(c2cccc([N+](=O)[O-])c2)C(C(=O)Nc2cccc3ccccc23)=C(C)N1
inactive: dose: 7.5 mg/kg/injection, schedule: Q01DX005 (ip), vehicle: Klucel (hydroxypropylcellulose) (HPC) 100 % of control | dose: 15.0 mg/kg/injection, schedule: Q01DX005 (ip), vehicle: Klucel (hydroxypropylcellulose) (HPC) 100 % of control | dose: 30.0 mg/kg/injection, schedule: Q01DX005 (ip), vehicle: Klucel (hydroxypropylcellulose) (HPC) 103 % of control

CCCC(=O)OCc1ccc(Cl)c(Cl)c1
inactive: dose: 25.0 mg/kg/injection, schedule: Q04DX003 (ip), vehicle: saline 100 % of control | dose: 50.0 mg/kg/injection, schedule: Q04DX003 (ip), vehicle: saline 104 % of control | dose: 100.0 mg/kg/injection, schedule: Q04DX003 (ip), vehicle: saline 100 % of control

O=C(NC(Cc1ccc(Cl)cc1)C(=O)O)c1cccc(Br)c1 (centres undefined)
inactive: [3] 102 % of control | [4] 100 % of control | [5] 110 % of control

O=C(COc1ccc2c(=O)c3ccccc3oc2c1)N/N=C/c1ccc(N(CCCl)CCCl)cc1
inactive: [6] 97 % of control | [7] 95 % of control | [8] 94 % of control

C=CCn1cc(F)c(=O)[nH]c1=O
inactive: dose: 30.0 mg/kg/injection, schedule: Q04DX002 (ip), vehicle: saline 97 % of control | dose: 60.0 mg/kg/injection, schedule: Q04DX002 (ip), vehicle: saline 100 % of control | dose: 120.0 mg/kg/injection, schedule: Q04DX002 (ip), vehicle: saline 104 % of control | dose: 150.0 mg/kg/injection, schedule: Q04DX002 (ip), vehicle: saline 100 % of control | dose: 240.0 mg/kg/injection, schedule: Q04DX002 (ip), vehicle: saline 99 % of control | dose: 300.0 mg/kg/injection, schedule: Q04DX002 (ip), vehicle: saline 98 % of control | dose: 600.0 mg/kg/injection, schedule: Q04DX002 (ip), vehicle: saline 106 % of control

C[Se]C([Se]C)=C([Se]C)[Se]C
inactive: dose: 15.0 mg/kg/injection, schedule: Q01DX005 (ip), vehicle: saline with Tween-80 107 % of control | dose: 30.0 mg/kg/injection, schedule: Q01DX005 (ip), vehicle: saline with Tween-80 108 % of control | dose: 60.0 mg/kg/injection, schedule: Q01DX005 (ip), vehicle: saline with Tween-80 100 % of control and 91 % of control

COc1ccccc1C1(O)c2ccccc2C(=O)c2ccccc21
inactive: [3] 101 % of control | [4] 99 % of control | [5] 103 % of control

CC1C(=O)OC2C1CCC1(C)C=CC(=O)C3(C)OC213 (centres undefined)
inactive: [6] 100 % of control | [7] 104 % of control | [8] 105 % of control

Nc1ncnc2c1ccn2COCCOP(=O)(O)O
inactive: dose: 50.0 mg/kg/injection, schedule: Q01DX005 (ip), vehicle: distilled water + alcohol 105 % of control | dose: 100.0 mg/kg/injection, schedule: Q01DX005 (ip), vehicle: distilled water + alcohol 100 % of control | dose: 200.0 mg/kg/injection, schedule: Q01DX005 (ip), vehicle: distilled water + alcohol 98 % of control

N#[O+].O.O=N[O-].O=N[O-].[NH2-].[NH2-].[Ru+2]
inactive: dose: 12.5 mg/kg/injection, schedule: Q04DX003 (ip), vehicle: water 110 % of control | dose: 25.0 mg/kg/injection, schedule: Q04DX003 (ip), vehicle: water 111 % of control | dose: 50.0 mg/kg/injection, schedule: Q04DX003 (ip), vehicle: water 118 % of control | dose: 100.0 mg/kg/injection, schedule: Q04DX003 (ip), vehicle: water 111 % of control | dose: 200.0 mg/kg/injection, schedule: Q04DX003 (ip), vehicle: water 102 % of control

O=C(C(Br)C(Br)c1ccccc1)N1CCOCC1 (centres undefined)
inactive: dose: 100.0 mg/kg/injection, schedule: Q01DX009 (ip), vehicle: saline with Tween-80 118 % of control | dose: 178.0 mg/kg/injection, schedule: Q01DX009 (ip), vehicle: saline with Tween-80 113 % of control | dose: 266.0 mg/kg/injection, schedule: Q01DX009 (ip), vehicle: saline with Tween-80 119 % of control | dose: 400.0 mg/kg/injection, schedule: Q01DX009 (ip), vehicle: saline with Tween-80 121 % of control

[Cl][Sn]1([Cl])[CH2]CC[CH2][Sn]([Cl])([Cl])[CH2]CC[CH2]1
inactive: dose: 25.0 mg/kg/injection, schedule: Q01DX001 (ip), vehicle: saline 107 % of control | dose: 50.0 mg/kg/injection, schedule: Q01DX001 (ip), vehicle: saline 107 % of control | dose: 100.0 mg/kg/injection, schedule: Q01DX001 (ip), vehicle: saline 120 % of control | dose: 100.0 mg/kg/injection, schedule: Q04DX002 (ip), vehicle: saline 109 % of control

Nc1cccc(S(=O)(=O)N/N=C/C(=O)O)c1
inactive: dose: 12.5 mg/kg/injection, schedule: Q01DX009 (ip), vehicle: water 111 % of control | dose: 25.0 mg/kg/injection, schedule: Q01DX009 (ip), vehicle: water 116 % of control | dose: 50.0 mg/kg/injection, schedule: Q01DX009 (ip), vehicle: water 119 % of control | dose: 100.0 mg/kg/injection, schedule: Q01DX009 (ip), vehicle: water 117 % of control

O=C1C2CC=C3CCCC3C2C(=O)C2CC=C3CCCC3C12 (centres undefined)
inactive: dose: 7.5 mg/kg/injection, schedule: Q01DX009 (ip), vehicle: saline with Tween-80 105 % of control | dose: 15.0 mg/kg/injection, schedule: Q01DX009 (ip), vehicle: saline with Tween-80 102 % of control | dose: 30.0 mg/kg/injection, schedule: Q01DX009 (ip), vehicle: saline with Tween-80 106 % of control

CC1CC(=O)NN1 (centres undefined)
inactive: [6] 100 % of control | [7] 101 % of control | [8] 107 % of control

Source: PubChem BioAssay AID330 (DTP/NCI, 2004)
